Patent US10472358B2, “1H-pyrrolo[2,3-c]pyridin-7(6H)-ones and pyrazolo[3,4-c]pyridin-7(6H)-ones as inhibitors of BET proteins” (Incyte Corporation, priority 2014, dated 2019)

The compounds below were run on KMS.12.BM cells (assay: KMS.12.BM cell viability assay (Cell Titer-GLO, ATP quantitation)). Details: KMS-12-BM, 72 h; human myeloma cells, 3 days, concentration required for 50% cell death.
Type: cell-based
Protocol: Example B1: KMS.12.BM Cell Viability Assay
KMS.12.BM cell line (human myeloma) was purchased from JCRB (Osaka, Japan) and maintained in RPMI with 10% FBS culture medium. To measure the cytotoxic activity of the compounds through ATP quantitation, the KMS.12.BM cells are plated in the RPMI culture medium at 5000 cells/well/per 100 μL into a 96-well polystyrene clear black tissue culture plate (Greiner-bio-one through VWR, NJ), in the presence or absence of a concentration range of test compounds. After 3 days, […] Cell Titer-GLO Luminescent (Promega, Madison, Wis.) cell culture agent is added to each well for 10 minutes at room temperature to stabilize the luminescent signal. This determines the number of viable cells in culture based on quantitation of the ATP present, which signals the presence of metabolically active cells. Luminescence is measured with the Top Count 384 (Packard Bioscience through Perkin Elmer, Boston, Mass.). Compound inhibition is determined relative to cells cultured with no drug and the IC50 is reported as the compound concentration required for 50% cell death.

| Structure (SMILES) | IC50 [nM] |
| --- | --- |
| COc1cc2c(c(-c3cn(C)c(=O)c4[nH]ccc34)c1)OC(C(C)C)C(=O)N2 (single isomer, unassigned) [Example 9A, 2-isopropyl-6-methoxy-8-(6-methyl-7-oxo-6,7-dihydro-1H-pyrrolo[2,3-c]pyridin-4-yl)-2H-1,4-benzoxazin-3(4H)-one] | ≤ 1000 |
| COc1cc2c(c(-c3cn(C)c(=O)c4[nH]ccc34)c1)OC(c1ccccc1)C(=O)N2 (single isomer, unassigned) [Example 24A, 6-methoxy-8-(6-methyl-7-oxo-6,7-dihydro-1H-pyrrolo[2,3-c]pyridin-4-yl)-2-phenyl-2H-1,4-benzoxazin-3(4H)-one] | ≤ 1000 |
| COc1cc2c(c(-c3cn(C)c(=O)c4[nH]ccc34)c1)OC(C1CCCC1)C(=O)N2 (single isomer, unassigned) [Example 35A, 2-Cyclopentyl-6-methoxy-8-(6-methyl-7-oxo-6,7-dihydro-1H-pyrrolo[2,3-c]pyridin-4-yl)-2H-1,4-benzoxazin-3(4H)-one] | ≤ 1000 |
| COc1cc2c(c(-c3cn(C)c(=O)c4[nH]ncc34)c1)OC(C1CCCC1)C(=O)N2 (single isomer, unassigned) [Example 42A, 2-cyclopentyl-6-methoxy-8-(6-methyl-7-oxo-6,7-dihydro-1H-pyrazolo[3,4-c]pyridin-4-yl)-2H-1,4-benzoxazin-3(4H)-one] | ≤ 1000 |
| CC(C)C1Oc2c(cc(S(C)(=O)=O)cc2-c2cn(C)c(=O)c3[nH]ccc23)NC1=O (single isomer, unassigned) [Example 44A, 2-isopropyl-8-(6-methyl-7-oxo-6,7-dihydro-1H-pyrrolo[2,3-c]pyridin-4-yl)-6-(methylsulfonyl)-2H-1,4-benzoxazin-3(4H)-one] | ≤ 1000 |
| CC(C)C1Oc2c(-c3cn(C)c(=O)c4[nH]ccc34)cc(S(C)(=O)=O)cc2N(C)C1=O (single isomer, unassigned) [Example 47A, 2-isopropyl-4-methyl-8-(6-methyl-7-oxo-6,7-dihydro-1H-pyrrolo[2,3-c]pyridin-4-yl)-6-(methylsulfonyl)-2H-1,4-benzoxazin-3(4H)-one] | ≤ 1000 |
| CC(O)c1cc(-c2cn(C)c(=O)c3[nH]ccc23)c2c(c1)N(C)C(=O)C(C)(C)O2 (single isomer, unassigned) [Example 83A, 6-(1-hydroxyethyl)-2,2,4-trimethyl-8-(6-methyl-7-oxo-6,7-dihydro-1H-pyrrolo[2,3-c]pyridin-4-yl)-2H-1,4-benzoxazin-3(4H)-one] | ≤ 1000 |
| Cn1cc(-c2cccc3c2OC(c2ccccc2)C(=O)N3)c2cc[nH]c2c1=O (centres unmarked) [Example 1, 8-(6-methyl-7-oxo-6,7-dihydro-1H-pyrrolo[2,3-c]pyridin-4-yl)-2-phenyl-2H-1,4-benzoxazin-3(4H)-one] | ≤ 1000 |
| CC(C)C1Oc2c(cccc2-c2cn(C)c(=O)c3[nH]ccc23)NC1=O (centres unmarked) [Example 2, 2-isopropyl-8-(6-methyl-7-oxo-6,7-dihydro-1H-pyrrolo[2,3-c]pyridin-4-yl)-2H-1,4-benzoxazin-3(4H)-one] | ≤ 1000 |
| CC1Oc2c(cccc2-c2cn(C)c(=O)c3[nH]ccc23)NC1=O (centres unmarked) [Example 3, 2-methyl-8-(6-methyl-7-oxo-6,7-dihydro-1H-pyrrolo[2,3-c]pyridin-4-yl)-2H-1,4-benzoxazin-3(4H)-one] | ≤ 1000 |
| CCC1Oc2c(cccc2-c2cn(C)c(=O)c3[nH]ccc23)NC1=O (centres unmarked) [Example 4, 2-ethyl-8-(6-methyl-7-oxo-6,7-dihydro-1H-pyrrolo[2,3-c]pyridin-4-yl)-2H-1,4-benzoxazin-3(4H)-one] | ≤ 1000 |
| Cn1cc(-c2cccc3c2OC(C2CC2)C(=O)N3)c2cc[nH]c2c1=O (centres unmarked) [Example 6, 2-cyclopropyl-8-(6-methyl-7-oxo-6,7-dihydro-1H-pyrrolo[2,3-c]pyridin-4-yl)-2H-1,4-benzoxazin-3(4H)-one] | ≤ 1000 |
| Cn1cc(-c2cccc3c2OC(C2CCOCC2)C(=O)N3)c2cc[nH]c2c1=O (centres unmarked) [Example 7, 8-(6-methyl-7-oxo-6,7-dihydro-1H-pyrrolo[2,3-c]pyridin-4-yl)-2-(tetrahydro-2H-pyran-4-yl)-2H-1,4-benzoxazin-3(4H)-one] | ≤ 1000 |
| CCC1Oc2c(-c3cn(C)c(=O)c4[nH]ccc34)cccc2N(C)C1=O (centres unmarked) [Example 8, 2-ethyl-4-methyl-8-(6-methyl-7-oxo-6,7-dihydro-1H-pyrrolo[2,3-c]pyridin-4-yl)-2H-1,4-benzoxazin-3(4H)-one] | ≤ 1000 |
| COc1cc2c(c(-c3cn(C)c(=O)c4[nH]ccc34)c1)OC(C(C)C)C(=O)N2 (centres unmarked) [Example 9, 2-isopropyl-6-methoxy-8-(6-methyl-7-oxo-6,7-dihydro-1H-pyrrolo[2,3-c]pyridin-4-yl)-2H-1,4-benzoxazin-3(4H)-one] | ≤ 1000 |
| COc1cc(-c2cn(C)c(=O)c3[nH]ccc23)c2c(c1)N(C)C(=O)C(C(C)C)O2 (centres unmarked) [Example 10, 2-isopropyl-6-methoxy-4-methyl-8-(6-methyl-7-oxo-6,7-dihydro-1H-pyrrolo[2,3-c]pyridin-4-yl)-2H-1,4-benzoxazin-3(4H)-one] | ≤ 1000 |
| CNC(=O)CN1C(=O)C(C(C)C)Oc2c(-c3cn(C)c(=O)c4[nH]ccc34)cc(OC)cc21 (centres unmarked) [Example 12, 2-[2-isopropyl-6-methoxy-8-(6-methyl-7-oxo-6,7-dihydro-1H-pyrrolo[2,3-c]pyridin-4-yl)-3-oxo-2,3-dihydro-4H-1,4-benzoxazin-4-yl]-N-methylacetamide] | ≤ 1000 |
| COc1cc(-c2cn(C)c(=O)c3[nH]ccc23)c2c(c1)N(CC(N)=O)C(=O)C(C(C)C)O2 (centres unmarked) [Example 13, 2-[2-isopropyl-6-methoxy-8-(6-methyl-7-oxo-6,7-dihydro-1H-pyrrolo[2,3-c]pyridin-4-yl)-3-oxo-2,3-dihydro-4H-1,4-benzoxazin-4-yl]acetamide] | ≤ 1000 |
| COc1cc(-c2cn(C)c(=O)c3[nH]ccc23)c2c(c1)N(CC(=O)N1CCN(C)CC1)C(=O)C(C(C)C)O2 (centres unmarked) [Example 14, 2-isopropyl-6-methoxy-8-(6-methyl-7-oxo-6,7-dihydro-1H-pyrrolo[2,3-c]pyridin-4-yl)-4-[2-(4-methylpiperazin-1-yl)-2-oxoethyl]-2H-1,4-benzoxazin-3(4H)-one] | ≤ 1000 |
| COc1cc(-c2cn(C)c(=O)c3[nH]ccc23)c2c(c1)N(Cc1ccncc1)C(=O)C(C(C)C)O2 (centres unmarked) [Example 15, 2-isopropyl-6-methoxy-8-(6-methyl-7-oxo-6,7-dihydro-1H-pyrrolo[2,3-c]pyridin-4-yl)-4-(pyridin-4-ylmethyl)-2H-1,4-benzoxazin-3(4H)-one] | ≤ 1000 |
| COc1cc(-c2cn(C)c(=O)c3[nH]ccc23)c2c(c1)N(C(C)C)C(=O)C(C(C)C)O2 (centres unmarked) [Example 16, 2,4-diisopropyl-6-methoxy-8-(6-methyl-7-oxo-6,7-dihydro-1H-pyrrolo[2,3-c]pyridin-4-yl)-2H-1,4-benzoxazin-3(4H)-one] | ≤ 1000 |
| CC(C)C1Oc2c(cc(C#N)cc2-c2cn(C)c(=O)c3[nH]ccc23)NC1=O (centres unmarked) [Example 17, 2-isopropyl-8-(6-methyl-7-oxo-6,7-dihydro-1H-pyrrolo[2,3-c]pyridin-4-yl)-3-oxo-3,4-dihydro-2H-1,4-benzoxazine-6-carbonitrile] | ≤ 1000 |
| CC(C)C1Oc2c(-c3cn(C)c(=O)c4[nH]ccc34)cc(C#N)cc2N(C)C1=O (centres unmarked) [Example 18, 2-isopropyl-4-methyl-8-(6-methyl-7-oxo-6,7-dihydro-1H-pyrrolo[2,3-c]pyridin-4-yl)-3-oxo-3,4-dihydro-2H-1,4-benzoxazine-6-carbonitrile] | ≤ 1000 |

Same assay, conditions: human myeloma cells, 3 days, concentration required for 50% cell death

| Structure (SMILES) | IC50 [nM] |
| --- | --- |
| COc1cc2c(c(-c3cn(C)c(=O)c4[nH]ccc34)c1)OC(c1ccccc1)C(=O)N2 (single isomer, unassigned) [Example 24B, 6-methoxy-8-(6-methyl-7-oxo-6,7-dihydro-1H-pyrrolo[2,3-c]pyridin-4-yl)-2-phenyl-2H-1,4-benzoxazin-3(4H)-one] | ≤ 1000 |
| COc1cc2c(c(-c3cn(C)c(=O)c4[nH]ccc34)c1)OC(C1CCCC1)C(=O)N2 (single isomer, unassigned) [Example 35B, 2-Cyclopentyl-6-methoxy-8-(6-methyl-7-oxo-6,7-dihydro-1H-pyrrolo[2,3-c]pyridin-4-yl)-2H-1,4-benzoxazin-3(4H)-one] | ≤ 1000 |
| COc1cc2c(c(-c3cn(C)c(=O)c4[nH]ncc34)c1)OC(C1CCCC1)C(=O)N2 (single isomer, unassigned) [Example 42B, 2-cyclopentyl-6-methoxy-8-(6-methyl-7-oxo-6,7-dihydro-1H-pyrazolo[3,4-c]pyridin-4-yl)-2H-1,4-benzoxazin-3(4H)-one] | ≤ 1000 |
| CC(C)C1Oc2c(cc(S(C)(=O)=O)cc2-c2cn(C)c(=O)c3[nH]ccc23)NC1=O (single isomer, unassigned) [Example 44B, 2-isopropyl-8-(6-methyl-7-oxo-6,7-dihydro-1H-pyrrolo[2,3-c]pyridin-4-yl)-6-(methylsulfonyl)-2H-1,4-benzoxazin-3(4H)-one] | ≤ 1000 |
| CC(C)C1Oc2c(-c3cn(C)c(=O)c4[nH]ccc34)cc(S(C)(=O)=O)cc2N(C)C1=O (single isomer, unassigned) [Example 47B, 2-isopropyl-4-methyl-8-(6-methyl-7-oxo-6,7-dihydro-1H-pyrrolo[2,3-c]pyridin-4-yl)-6-(methylsulfonyl)-2H-1,4-benzoxazin-3(4H)-one] | ≤ 1000 |
| CC(O)c1cc(-c2cn(C)c(=O)c3[nH]ccc23)c2c(c1)N(C)C(=O)C(C)(C)O2 (single isomer, unassigned) [Example 83B, 6-(1-hydroxyethyl)-2,2,4-trimethyl-8-(6-methyl-7-oxo-6,7-dihydro-1H-pyrrolo[2,3-c]pyridin-4-yl)-2H-1,4-benzoxazin-3(4H)-one] | ≤ 1000 |
